Experiment [1] addresses T1, IRAK4 (Homo sapiens (Human), UniProt Q9NWZ3). Kind of experiment: Western blot assay for assessing degradation of IRAK4 in MCF7 cells. The format is cell-based. The following applies: Table 5, IRAK4 degradation, 24 hour incubation; for DC50: read-out: IRAK4 DC50; for Dmax: read-out: IRAK4 Dmax (%). The method, boiled down: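 MCF7 cells were treated 24 h with serially diluted compound (0.1% DMSO final), then lysed in RIPA. IRAK4 and IRAK1 levels were measured by western blot with β-actin probed alongside. Percent degradation compared compound-treated with DMSO-treated lysates.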
Background: Immunoblotting shows a protein as a band on a membrane.

The target of experiment [2] is T1, IRAK4. The experiment in a line: Biochemical Z'-Lyte FRET assay for IRAK4 kinase inhibition. The conditions noted are these: 2 nM enzyme, 1 mM ATP, 2 μM substrate. In short, it runs like this:
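Z′-Lyte FRET phosphorylation of Ser/Thr 7 peptide (2 µM) by 2 nM recombinant IRAK4 at 1 mM ATP in HEPES pH 7.5 with MgCl2/MnCl2, after 10 min enzyme–compound preincubation; 1 h at room temperature, then 1 h development, 460/530 nm emission. Duplicate 12-point, 3-fold curves from 30 µM; IC50 from percent inhibition against ±100% controls.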

The text below walks through data of patent US11065231B2, “Compounds and methods for the targeted degradation of interleukin-1 receptor- associated kinase 4 polypeptides” (Arvinas Operations, Inc., priority 2017, dated 2021).

T1 sequence (Q9NWZ3 whole entry): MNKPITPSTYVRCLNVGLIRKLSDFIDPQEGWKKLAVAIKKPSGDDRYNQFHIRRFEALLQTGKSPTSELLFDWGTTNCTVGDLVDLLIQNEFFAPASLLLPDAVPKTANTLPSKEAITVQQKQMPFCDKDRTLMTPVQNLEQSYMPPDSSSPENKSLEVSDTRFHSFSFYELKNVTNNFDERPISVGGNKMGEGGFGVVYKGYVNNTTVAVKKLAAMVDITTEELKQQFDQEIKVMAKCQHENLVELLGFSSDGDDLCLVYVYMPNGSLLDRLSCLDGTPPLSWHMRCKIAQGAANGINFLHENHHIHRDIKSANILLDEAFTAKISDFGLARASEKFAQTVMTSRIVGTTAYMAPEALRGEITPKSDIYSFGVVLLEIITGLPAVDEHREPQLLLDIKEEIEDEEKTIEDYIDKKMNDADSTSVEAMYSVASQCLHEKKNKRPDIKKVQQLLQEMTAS

As for `CN(CCOCCOCCOCCOc1ccc2c(c1)C(=O)N(C1CCC(=O)NC1=O)C2=O)c1cccc(-n2c(NC(=O)c3cccc(C(F)(F)F)c3)nc3cc(F)ccc32)c1` (stereo not shown) [compound 52, N-(1-(3-((2-(2-(2-(2-((2-(2,6-dioxopiperidin-3-yl)-1,3-dioxoisoindolin-5-yl)oxy)ethoxy)ethoxy)ethoxy)ethyl)(methyl)amino)phenyl)-5-fluoro-1H-benzo[d]imidazol-2-yl)-3-(trifluoromethyl)benzamide], the DC50 at IRAK4 [1] was not below 1000 nM. This compound also registered an IC50 against IRAK4 [2] not below 1000 nM.
As for `O=C1CCC(N2C(=O)c3ccc(OCCOCCOCCN4CCN(Cc5ccc6c(c5)nc(NC(=O)c5cccc(C(F)(F)F)c5)n6-c5ccccc5)CC4)cc3C2=O)C(=O)N1` (stereo not shown) [compound 53, N-(5-((4-(2-(2-(2-((2-(2,6-dioxopiperidin-3-yl)-1,3-dioxoisoindolin-5-yl)oxy)ethoxy)ethoxy)ethyl)piperazin-1-yl)methyl)-1-phenyl-1H-benzo[d]imidazol-2-yl)-3-(trifluoromethyl)benzamide], the DC50 on IRAK4 [1] is not below 1000 nM. In addition, the IC50 against IRAK4 [2] was not below 1000 nM.
As for `COc1cccc(-n2c(NC(=O)c3cccc(C(F)(F)F)c3)nc3cc(CN4CCN(CCOCCOCCOc5ccc6c(c5)C(=O)N(C5CCC(=O)NC5=O)C6=O)CC4)ccc32)c1` (stereo not shown) [compound 54, N-(5-((4-(2-(2-(2-((2-(2,6-dioxopiperidin-3-yl)-1,3-dioxoisoindolin-5-yl)oxy)ethoxy)ethoxy)ethyl)piperazin-1-yl)methyl)-1-(3-methoxyphenyl)-1H-benzo[d]imidazol-2-yl)-3-(trifluoromethyl)benzamide], the DC50 on IRAK4 [1] was not below 1000 nM. The compound further yielded an IC50 against IRAK4 [2] not below 1000 nM.
`O=C1CCC(N2C(=O)c3ccc(OCCN4CCN(Cc5ccc6c(c5)nc(NC(=O)c5cccc(C(F)(F)F)c5)n6-c5ccccc5)CC4)cc3C2=O)C(=O)N1` (stereo not shown) [compound 55, N-(5-((4-(2-((2-(2,6-dioxopiperidin-3-yl)-1,3-dioxoisoindolin-5-yl)oxy)ethyl)piperazin-1-yl)methyl)-1-phenyl-1H-benzo[d]imidazol-2-yl)-3-(trifluoromethyl)benzamide]: the DC50 on IRAK4 [1] was not below 1000 nM. The compound further returned an IC50 at IRAK4 [2] not below 1000 nM.
Consider `COc1cccc(-n2c(NC(=O)c3cccc(C(F)(F)F)c3)nc3cc(CN4CCN(CCOc5ccc6c(c5)C(=O)N(C5CCC(=O)NC5=O)C6=O)CC4)ccc32)c1` (stereo not shown) [compound 56, N-(5-((4-(2-((2-(2,6-dioxopiperidin-3-yl)-1,3-dioxoisoindolin-5-yl)oxy)ethyl)piperazin-1-yl)methyl)-1-(3-methoxyphenyl)-1H-benzo[d]imidazol-2-yl)-3-(trifluoromethyl)benzamide], for which the DC50 at IRAK4 [1] was not below 1000 nM. The compound further had a half-inhibitory concentration (IC50) on IRAK4 [2] not below 1000 nM.
On to `COc1cc2nn(C3CCN(CCOCCOc4ccc5c(c4)C(=O)N(C4CCC(=O)NC4=O)C5=O)CC3)cc2cc1NC(=O)c1cccc(C(F)(F)F)n1` (stereo not shown) [compound 58, N-(2-(1-(2-(2-((2-(2,6-dioxopiperidin-3-yl)-1,3-dioxoisoindolin-5-yl)oxy)ethoxy)ethyl)piperidin-4-yl)-6-methoxy-2H-indazol-5-yl)-6-(trifluoromethyl)picolinamide], for which, on IRAK4 [1], the DC50 was less than 30 nM and the Dmax lay within 50 to 70%. Moreover, on IRAK4 [2], the IC50 was less than 30 nM.
As to `COc1cc2nn(C3CCN(CCOCCOCCOc4ccc5c(c4)C(=O)N(C4CCC(=O)NC4=O)C5=O)CC3)cc2cc1NC(=O)c1cccc(C(F)(F)F)n1` (stereo not shown) [compound 59, N-(2-(1-(2-(2-(2-((2-(2,6-dioxopiperidin-3-yl)-1,3-dioxoisoindolin-5-yl)oxy)ethoxy)ethoxy)ethyl)piperidin-4-yl)-6-methoxy-2H-indazol-5-yl)-6-(trifluoromethyl)picolinamide], at IRAK4 [1], the DC50 is 300 to 1000 nM and the Dmax was 50 to 70%. The same compound displayed an IC50 against IRAK4 [2] of less than 30 nM.

Broadly, the DC50 is the concentration giving 50% degradation. In general, IC50 refers to the concentration at which inhibition is half-maximal. Usually Dmax stands for the greatest extent of degradation seen.
